Reference: patent publication US10273242B2, “Compound inhibiting activities of BTK and/or JAK3 kinases” (BEIJING HANMI PHARMACEUTICAL CO., LTD., priority 2013, dated 2019)

How the values were obtained:
[1] = target: T1, BTK kinase (Homo sapiens, UniProt Q06187); assay: BTK kinase activity inhibition assay (ADP-Glo); type: biochemical; conditions: ATP 50 μM
T1 construct: purchased Invitrogen PV3363
Description: The BTK kinase (purchased from Invitrogen, No.: PV3363) was diluted with reaction buffer (40 mM Tris-HCl, pH 7.5; 20 mM MgCl2, 0.1 mg/ml BSA; 1 mM DTT; 2 mM MnCl2) to 2 times of the final concentration (which is 1.1 ng/μL) and added with 5 μL/well to a 96-well plate. The compounds of the present invention were serial diluted with deionized water to four times (i.e., 40 μM, 4 μM, 0.4 μM, 80 nM, 16 nM, 3.2 nM, respectively) of the final concentrations (10 μM, 1 μM, 0.1 μM, 20 nM, 4 nM, 0.8 nM, respectively), and added at 2.5 μL/well to the test wells of the 96-well plate. After incubation at 25° C. for 10 minutes, ATP (50 μM) (purchased from Promega, No.: V9102) and 0.2 μg/μL of Poly E4Y1 (purchased from Sigma, No.: P0275-25MG) were added with 2.5 μL/well and incubated at 25° C. for 120 minutes. After the reaction was completed, 10 μL of the ADP-Glo reagent (ADP-Glo™ kinase assay kit, purchased from Promega, No.: V9102) was added to each well, and reacted at 25° C. for 40 minutes. Then 20 μL of the ADP-Glo kinase detection reagent was added to each well and reacted at 25° C. for 30 minutes. The kinase activity was detected by luminescence using the ADP-Glo kinase assay kit according to the manufacture's instruction, and IC50 values of the compounds of the present invention were calculated.

[2] = target: T2, JAK3 kinase (Homo sapiens, UniProt P52333); assay: JAK3 kinase activity inhibition assay (ADP-Glo); type: biochemical; conditions: ATP 10 μM
T2 construct: purchased SignalChem J03-11G
Description: The JAK3 kinase (purchased from SignalChem, No.: J03-11G) was diluted with reaction buffer (40 mM Tris-HCl, pH 7.5; 20 mM MgCl2, 0.1 mg/ml BSA; 1 mM DTT) to 2 times of the final concentration (which is 0.5 ng/μL) and added with 5 μL/well to a 96-well plate. The compounds of the present invention were serial diluted with deionized water to four times (i.e., 40 μM, 4 μM, 0.4 μM, 80 nM, 16 nM, 3.2 nM, respectively) of the final concentrations (10 μM, 1 μM, 0.1 μM, 20 nM, 4 nM, 0.8 nM, respectively), and added with 2.5 μL/well to the test wells of the 96-well plate. After incubation at 25° C. for 10 minutes, 10 μM of ATP (purchased from Promega, No.: V9102) and 0.2 μg/μL of Poly E4Y1 (purchased from Sigma, No.: P0275-25MG) were added at 2.5 μL/well and reacted at 25° C. for 60 minutes. After the reaction was completed, 10 μL of the ADP-Glo reagent (ADP-Glo™ kinase assay kit, purchased from Promega, No.: V9102) was added to each well and reacted at 25° C. for 40 minutes. Then 20 μL of the ADP-Glo kinase detection reagent was added to each well and reacted at 25° C. for 30 minutes. The kinase activity was detected by luminescence using the ADP-Glo kinase assay kit according to the manufacture's instruction, and IC50 values of the compounds of the present invention were calculated.

T2 sequence (P52333 781-1124 limits assumed): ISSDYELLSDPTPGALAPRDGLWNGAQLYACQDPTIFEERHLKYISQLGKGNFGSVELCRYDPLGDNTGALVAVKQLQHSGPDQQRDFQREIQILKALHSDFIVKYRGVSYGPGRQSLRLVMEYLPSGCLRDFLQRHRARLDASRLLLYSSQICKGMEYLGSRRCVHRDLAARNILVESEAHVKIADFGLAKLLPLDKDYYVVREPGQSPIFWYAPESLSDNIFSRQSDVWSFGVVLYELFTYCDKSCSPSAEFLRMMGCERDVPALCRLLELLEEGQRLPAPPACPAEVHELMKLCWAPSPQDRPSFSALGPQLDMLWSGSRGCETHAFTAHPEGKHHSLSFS
T1 sequence (Q06187 whole entry): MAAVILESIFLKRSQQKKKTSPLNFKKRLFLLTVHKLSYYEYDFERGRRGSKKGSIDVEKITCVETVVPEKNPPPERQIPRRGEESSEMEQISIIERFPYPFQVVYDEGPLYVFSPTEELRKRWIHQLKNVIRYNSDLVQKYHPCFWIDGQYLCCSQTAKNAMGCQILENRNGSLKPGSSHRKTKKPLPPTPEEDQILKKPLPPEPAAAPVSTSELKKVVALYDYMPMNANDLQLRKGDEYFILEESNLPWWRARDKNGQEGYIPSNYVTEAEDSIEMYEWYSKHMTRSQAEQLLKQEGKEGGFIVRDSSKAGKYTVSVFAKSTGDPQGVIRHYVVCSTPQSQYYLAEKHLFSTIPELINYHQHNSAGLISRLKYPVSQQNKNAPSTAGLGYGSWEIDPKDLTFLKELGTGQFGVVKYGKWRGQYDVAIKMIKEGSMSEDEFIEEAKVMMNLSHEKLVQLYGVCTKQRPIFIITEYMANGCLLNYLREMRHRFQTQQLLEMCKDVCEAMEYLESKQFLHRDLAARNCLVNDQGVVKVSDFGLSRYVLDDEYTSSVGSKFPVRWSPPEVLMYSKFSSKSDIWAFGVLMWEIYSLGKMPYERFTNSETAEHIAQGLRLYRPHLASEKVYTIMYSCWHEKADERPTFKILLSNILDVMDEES

IC50 [1] [nM]	IC50 [2] [nM]	Compound
≤ 50	10 to 100	C=CC(=O)N1CC[C@@H](Nc2nc(Nc3cnn(C4CCC4)c3)nc3ccsc23)C1 [Example 120]
≤ 50		C=CC(=O)N[C@H]1CC[C@@H](Nc2nc(Nc3cnn(C)c3)nc3ccoc23)CC1 [Example 57, N-(cis-4-((2-((1-methyl-1H-pyrazol-4-yl)amino)furo[3,2-d]pyrimidin-4-yl)amino)cyclohexyl)acrylamide]
≤ 50		C=CC(=O)N[C@H]1CC[C@@H](Nc2nc(Nc3cnn(CCF)c3)nc3ccsc23)CC1 [Example 16]
≤ 50		C=CC(=O)N[C@H]1CC[C@@H](Nc2nc(Nc3ccc(N4CCN(C)CC4)cc3)nc3ccsc23)CC1 [Example 34]
≤ 50		C=CC(=O)N[C@H]1CC[C@@H](Nc2nc(Nc3cnn(CCO)c3)nc3ccsc23)CC1 [Example 14]
≤ 50		C=CC(=O)N[C@H]1CC[C@@H](Nc2nc(Nc3cnn(C4CCCC4)c3)nc3ccsc23)CC1 [Example 13]
≤ 50	10 to 100	C=CC(=O)N1CC[C@@H](Nc2nc(Nc3cnn(C)c3)nc3ccsc23)C1 [Example 75]
≤ 50	10 to 100	C=CC(=O)N1CCC[C@@H](Nc2nc(Nc3cnn(C)c3)nc3ccsc23)C1 [Example 80]
≤ 50		C=CC(=O)NC1CCC(Nc2nc(Nc3cnn(C)c3)nc3ccsc23)CC1 (centres unmarked) [Example 2]
≤ 50		C=CC(=O)N[C@H]1CC[C@@H](Nc2nc(Nc3cn[nH]c3)nc3ccsc23)CC1 [Example 4]
≤ 50		C=CC(=O)N[C@H]1CC[C@@H](Nc2nc(Nc3cnn(C4CCC4)c3)nc3ccsc23)CC1 [Example 12]
≤ 50		C=CC(=O)N[C@H]1CC[C@@H](Nc2nc(Nc3cnn(CCN4CCOCC4)c3)nc3ccsc23)CC1 [Example 18]
≤ 50		C=CC(=O)N[C@H]1CC[C@@H](Nc2nc(Nc3cnn(C)c3)nc3ccsc23)CC1 [Example 1, N-(cis-4-((2-((1-methyl-1H-pyrazol-4-yl)amino)thieno[3,2-d]pyrimidin-4-yl)amino)cyclohexyl)acrylamide]
≤ 50		C=CC(=O)N[C@H]1CC[C@@H](Nc2nc(Nc3cnn(CCOC)c3)nc3ccsc23)CC1 [Example 15]
50 to 100		C=CC(=O)N[C@H]1CC[C@@H](Nc2nc(Nc3cnn(CCN(C)C)c3)nc3ccsc23)CC1 [Example 17]
≤ 50		C#CC(=O)N[C@H]1CC[C@@H](Nc2nc(Nc3cnn(C)c3)nc3ccsc23)CC1 [Example 60, N-(cis-4-((2-((1-methyl-1H-pyrazol-4-yl)amino)thieno[3,2-d]pyrimidin-4-yl)amino)cyclohexyl)propynamide]
≤ 50		C=CC(=O)N[C@H]1CC[C@@H](Nc2nc(Nc3cc(C)ns3)nc3ccsc23)CC1 [Example 8]

More lines, now with the values behind:

Compound	IC50 [1] [nM]	IC50 [2] [nM]
C=CC(=O)N1CC[C@@H](Nc2nc(Nc3cnn(C)c3)nc3sccc23)C1 [Example 101]	50 to 100	100 to 1000
C=CC(=O)N1CC(CNc2nc(Nc3cnoc3)nc3ccsc23)C1 [Example 73]	≤ 50	10 to 100
C=CC(=O)N1CC(CNc2nc(Nc3cccs3)nc3ccsc23)C1 [Example 72]	≤ 50	10 to 100
C=CC(=O)N1CCC[C@@H](Nc2nc(Nc3cnn(C)c3)nc3ccoc23)C1 [Example 95]	≤ 50	10 to 100
C=CC(=O)N1CC(CNc2nc(Nc3cnn(C(C)=O)c3)nc3ccsc23)C1 [Example 116]	≤ 50	10 to 100
C=CC(=O)N1CC[C@@H](Nc2nc(Nc3cnn(C)c3)nc3ccoc23)C1 [Example 93]	≤ 50	10 to 100
C=CC(=O)N1CC(CNc2nc(Nc3cnn(C4CCCC4)c3)nc3ccsc23)C1 [Example 112]	≤ 50	10 to 100
C=CC(=O)N[C@H]1CC[C@@H](Nc2nc(Nc3ccc(NC4CCN(C)CC4)c(C)c3)nc3ccsc23)CC1 [Example 45]	50 to 100	
C=CC(=O)N1CCC[C@@H](Nc2nc(Nc3cnn(C4CCCC4)c3)nc3ccsc23)C1 [Example 130]	≤ 50	10 to 100
C=CC(=O)N[C@H]1CC[C@@H](Nc2nc(Nc3ccc(NC4CCN(C)CC4)cc3)nc3ccsc23)CC1 [Example 43]	≤ 50	
C=CC(=O)N1CC[C@@H](Nc2nc(Nc3cnn(C4CCCC4)c3)nc3ccsc23)C1 [Example 121]	≤ 50	10 to 100
C=CC(=O)N1CC(CNc2nc(Nc3cnn(C4CCC4)c3)nc3ccsc23)C1 [Example 111]	≤ 50	10 to 100
C=CC(=O)N1CCC[C@@H](Nc2nc(Nc3cnn(C4CCC4)c3)nc3ccsc23)C1 [Example 129]	≤ 50	10 to 100
C=CC(=O)N1CC[C@@H](Nc2nc(Nc3cccs3)nc3ccsc23)C1 [Example 76]	≤ 50	10 to 100
C=CC(=O)N1CC(CNc2nc(Nc3cn[nH]c3)nc3ccsc23)C1 [Example 62]	≤ 50	10 to 100
C=CC(=O)N[C@H]1CC[C@@H](Nc2nc(Nc3ccc(NC4CCN(C)CC4)c(F)c3)nc3ccsc23)CC1 [Example 44]	≤ 50	
C=CC(=O)N1CC(CNc2nc(Nc3cnn(C)c3)nn3cccc23)C1 [Example 136]	≤ 50	
C=CC(=O)N1CC(CNc2nc(Nc3cc(C(C)C)no3)nc3ccsc23)C1 [Example 70]	50 to 100	10 to 100

Compound	IC50 [1] [nM]	IC50 [2] [nM]
C=CC(=O)N1CC[C@@H](Nc2nc(Nc3cnn(CCOC)c3)nc3ccsc23)C1 [Example 122]	≤ 50	≤ 10
C=CC(=O)N[C@H]1CC[C@@H](Nc2nc(Nc3ccc(OCCN4CCCCC4)c(F)c3)nc3ccsc23)CC1 [Example 30]	50 to 100	
C=CC(=O)N1CCC[C@@H](Nc2nc(Nc3cc(C)ns3)nc3sccc23)C1 [Example 104]	≤ 50	10 to 100
C=CC(=O)N[C@H]1CC[C@@H](Nc2nc(Nc3ccc(N4CCN(C)CC4)c(F)c3)nc3ccsc23)CC1 [Example 35]	≤ 50	
C=CC(=O)N1CC(CNc2nc(Nc3cnn(CCOC)c3)nc3ccsc23)C1 [Example 115]	≤ 50	10 to 100
C=CC(=O)N[C@H]1CC[C@@H](Nc2nc(Nc3ccc(N4CCOCC4)cc3)nc3ccsc23)CC1 [Example 33]	50 to 100	
C=CC(=O)N[C@H]1CC[C@@H](Nc2nc(Nc3ccc(NC4CCN(C(C)C)CC4)c(F)c3)nc3ccsc23)CC1 [Example 47]	≤ 50	
C=CC(=O)N[C@H]1CC[C@@H](Nc2nc(Nc3ccc(NC4CCN(C)CC4)c(Cl)c3)nc3ccsc23)CC1 [Example 46]	≤ 50	
C=CC(=O)N1CCC[C@@H](Nc2nc(Nc3cnn(C)c3)nc3sccc23)C1 [Example 103]	≤ 50	100 to 1000
C=CC(=O)N1CC[C@@H](Nc2nc(Nc3cnn(CCCOC)c3)nc3ccsc23)C1 [Example 123]	≤ 50	10 to 100
C=CC(=O)N[C@H]1CC[C@@H](Nc2nc(Nc3ccc(C(=O)N4CCN(C)CC4)cc3)nc3ccsc23)CC1 [Example 50]	≤ 50	
C=CC(=O)N[C@H]1CC[C@@H](Nc2nc(Nc3ccc(C(=O)N4CCN(C)CC4)c(F)c3)nc3ccsc23)CC1 [Example 51]	≤ 50	
C=CC(=O)N[C@H]1CC[C@@H](Nc2nc(Nc3ccc(C(=O)NC4CCN(C)CC4)c(F)c3)nc3ccsc23)CC1 [Example 52]	50 to 100	
C=CC(=O)N1CCC[C@@H](Nc2nc(Nc3cc(C)no3)nc3ccsc23)C1 [Example 85]	50 to 100	10 to 100
C=CC(=O)N1CCC[C@@H](Nc2nc(Nc3cnn(C(C)C)c3)nc3ccsc23)C1 [Example 128]	≤ 50	10 to 100
C=CC(=O)N[C@H]1CC[C@@H](Nc2nc(Nc3ccc(OC4CCN(C)CC4)c(F)c3)nc3ccsc23)CC1 [Example 49]	≤ 50	
C=CC(=O)N[C@H]1CC[C@@H](Nc2nc(Nc3ccc(N4CCN(C)CC4)c(C)c3)nc3ccsc23)CC1 [Example 36]	50 to 100	
C=CC(=O)N[C@H]1CC[C@@H](Nc2nc(Nc3ccc(OCCN4CCN(C)CC4)c(F)c3)nc3ccsc23)CC1 [Example 31]	≤ 50	
